Experimental data: patent US20190076510A1, “PROTEIN KINASE C INHIBITION TO EXTEND TISSUE PLASMINOGEN ACTIVATOR TREATMENT FOR ISCHEMIC DISEASE” (THE REGENTS OF THE UNIVERSITY OF MICHIGAN, priority 2017, published 2019)

Experiments:
[1] = test system: photothrombotic MCAO mice; test: MCAO-induced cerebral vascular permeability to fluorescent-labeled 70 kDa dextran; assay type: in vivo, mouse; settings: separate experiments
[2] = test system: vascular permeability in the eye; settings: in vivo; cited from earlier work
acute ischemic stroke = settings: intravenous rtPA within 3-4.5 hours; cited from earlier work
[3] = test system: photothrombotic MCAO mice; test: Hemorrhagic transformation (ICH) after MCAO with late rtPA thrombolysis; assay type: in vivo, mouse; settings: rtPA given 5 hours after stroke
Source text: Transgenic mouse lines and commercially available laboratory mouse strains (Jackson Labs) were bred using standard procedures. These strains include wild-type C57BL/6J mice, and C57BL/6J mice with diet-induced obesity. Transgenic mice include mice deficient in tissue type plasminogen activator (tPA^−/−), mice expressing the S490A mutant of occludin, and mice expressing Cre under the vascular endothelium. The numbers of mice used are necessary to maintain the breeding colonies and to obtain statistical significance in the experiments. Mouse pups are weaned at 3 weeks of age. Mice are marked with standard mouse ear tags. […] Both male and female mice are used, but are initially analyzed separately. […]
Using the Tek promoter for control of stop flox expression, however, leads to 85% of bone marrow-derived cells expressing the gene as well as endothelial cells (Genesis. 2010 September; 48(9):563-7)). […] Expression of Tg:S490AOcc^+/+ reduced permeability induced by MCAO, as measured using 70 kDa dextran labeled with Texas Red (dextran). […] Five images surrounding the infarct were taken and mean pixel intensity was determined using Imaris software, averaged for each mouse with n of at least 8 mice. […]
In addition to these studies, the effect of the PKC-β inhibition on hemorrhagic transformation was measured after tPA induction in MCAO mice. […]

Compound: CN(C)C[C@@H]1CCn2cc(c3ccccc32)C2=C(C(=O)NC2=O)c2cn(c3ccccc23)CCO1 [LY333531]
- reduction in cerebral permeability to dextran (surgical removal of ischemic region and penumbra, dye extraction) [1]: ~30%

Compound: CN(C)C[C@@H]1CCn2cc(c3ccccc32)C2=C(C(=O)NC2=O)c2cn(c3ccccc23)CCO1 [Ruboxistaurin®]
- vascular permeability and edema in the eye [2]: shown to reduce vascular permeability and edema in the eye

Compound: rtPA: recombinant tissue plasminogen activator, thrombolytic
- patients having absolute benefit (acute ischemic stroke): 90 out of 1000
- hemorrhagic transformation from late rtPA treatment (area of hemoglobin in serial brain sections) [3]: clear increase
